Assay results: patent EP0723577B1, “DETERGENT COMPOSITIONS CONTAINING SILVER ANTI-TARNISHING AGENTS” (UNILEVER N.V., priority 1993, dated 1995)

Experiments:
[1] = pKa determination by titration of a 0.001M solution with 1N NaOH; type: physicochemical
Protocol: As used herein, the term "pKa" means a pH value at which 50% of the heterocyclic ring moieties of the compound (particularly the five-membered rings in the case of the purine class compounds) are in ionic form.
The pH of this solution was adjusted to 3.0 with H2SO4. The solution was then titrated with 1N NaOH to pH 11.0. A plot of mls. NaOH vs. pH for each sample was prepared. The pKa of the compound is that point where the maximum change in pH as a function of mls. NaOH is observed.

[2] = Silver plates held in the compositions for 25 minutes, evaluated for tarnishing; conditions: for Effective Silver Anti-Tarnishing: 4 wt.% epsilon-phthalimido peroxyhexanoic acid
Protocol: (§1) A comparison of anti-tarnishing performance of purine class compounds within the scope of the invention and azole compounds outside the invention was conducted. The selected compounds were incorporated in an amount of 1 wt.% in a machine dishwashing composition containing 4 wt.% epsilon-phthalimido peroxyhexanoic acid as the bleaching agent. The pH values of the compositions were adjusted by the addition of a 50% solution of sodium hydroxide or concentrated sulfuric acid, as necessary.
(§2) Copper plates and silver plates were held in each of the compositions for 25 minutes, removed, rinsed with deionized water and evaluated for tarnishing. […]
as §1, with “1,3-N azole” for “purine class”
as §2

[3] = Tarnish-monitoring experiments in a dishwasher, monitors visually ranked 0 to 6 against the Example 1 reference scale; conditions: general description, compositions containing the compound
Protocol: The wash program consisted of a pre-wash at 40°C, a mainwash at 55°C, two intermediate rinses, and a final rinse at 65°C.
The mainwash pH with these compositions was typically 8.7. Silver-plated spoons (2 per run) were the monitors used in the test. The spoons were supplied by Oneida Silversmiths, USA. The monitors were washed in a commercially available hand dishwash liquid and rinsed with deionized water and acetone before use. In the dishwasher the monitors were kept apart from each other in the cutlery basket. At the end of a single-run machine program, the monitors were visually analyzed for the presence of colours and the loss of gloss.
This ranking of spoons was used as a reference scale for all subsequent Examples.

[4] = Example 13, Tables 20 and 21, read-out: pKa of compounds
[5] = Example 13: 1 wt.% compound, pH of composition 8.5
[6] = Example 13: 1 wt.% compound, pH of composition 11.0
[7] = Example 5: 1 wt.% compound, pH of composition 8.5
[8] = Example 5: 1 wt.% compound, pH of composition 11.0
[9] = Example 5: 1 wt.% compound, pH of composition 8.6
[10] = Example 13: 1 wt.% compound, pH of composition 8.6

For `c1nnn[nH]1` [1,2,3,5-Tetrazole], the pKa [1, 4] was 8.4, the “pH of compositions in which the compound is effective” value ([2]; Example 13) was “greater than 9.4” and the “effectiveness as a silver anti-tarnishing agent, in words” value (“effectiveness” for short) ([2]; Example 13, pH of 8.5) was “not effective”. The “effectiveness” value ([2]; Example 13, pH of 9.5 and greater) was “effective”, the “Effective Silver Anti-Tarnishing” value [2, 5] was “No (A tarnish score of 3 or less was considered effective as a silver anti-tarnishing compound)” and the “Effective Silver Anti-Tarnishing” value ([2]; Example 13: 1 wt.% compound, pH of composition 9.5) was “Yes (A tarnish score of 3 or less was considered effective as a silver anti-tarnishing compound)”. The “Effective Silver Anti-Tarnishing” value ([2]; Example 13: 1 wt.% compound, pH of composition 10.5) was “Yes (A tarnish score of 3 or less was considered effective as a silver anti-tarnishing compound)” and the “Effective Silver Anti-Tarnishing” value [2, 6] was “Yes (A tarnish score of 3 or less was considered effective as a silver anti-tarnishing compound)”.
In the case of `c1ccc(-c2ncc[nH]2)cc1` [2-Phenylimidazole, reference compound], the pKa [1] is reported as 8.8, the “Effective Silver Anti-Tarnishing” value [2, 7] is reported as “No (A tarnish score of 3 or less was considered effective as a silver anti-tarnishing compound)” and the “Effective Silver Anti-Tarnishing” value [2, 8] is reported as “No (A tarnish score of 3 or less was considered effective as a silver anti-tarnishing compound)”. For the same compound, the “prevention of silver tarnishing, in words” value ([2]; Example 13, pH 11.0) was “did not prevent silver tarnishing”, the “Effective Silver Anti-Tarnishing” value [2, 5] was “No (A tarnish score of 3 or less was considered effective as a silver anti-tarnishing compound)” and the “Effective Silver Anti-Tarnishing” value [2, 6] was “No (A tarnish score of 3 or less was considered effective as a silver anti-tarnishing compound)”.
In the case of `Nc1nc[nH]n1` [3-amino-1,2,4-triazole], the pKa [1] is reported as 7.3 and the “Effective Silver Anti-Tarnishing” value ([2]; Example 13: 1 wt.% compound, pH of composition 8.3) is reported as “Yes (A tarnish score of 3 or less was considered effective as a silver anti-tarnishing compound)”.
For `Nc1nn[nH]n1` [4-amino-1,2,3,5-tetrazole], the pKa [1] was 8.1, the “effectiveness” value ([2]; Example 13, pH of 8.8) was “not effective” and the “Effective Silver Anti-Tarnishing” value ([2]; Example 13: 1 wt.% compound, pH of composition 8.8) was “No (A tarnish score of 3 or less was considered effective as a silver anti-tarnishing compound)”.
In the case of `O=[N+]([O-])c1ccc2cn[nH]c2c1` [6-Nitroindazole, reference compound], the pKa [1] is reported as 6.8, the “Effective Silver Anti-Tarnishing” value [2, 7] is reported as “No (A tarnish score of 3 or less was considered effective as a silver anti-tarnishing compound)” and the “Effective Silver Anti-Tarnishing” value [2, 8] is reported as “No (A tarnish score of 3 or less was considered effective as a silver anti-tarnishing compound)”. The “Effective Silver Anti-Tarnishing” value [2, 5] was “No (A tarnish score of 3 or less was considered effective as a silver anti-tarnishing compound)” and the “Effective Silver Anti-Tarnishing” value [2, 6] was “No (A tarnish score of 3 or less was considered effective as a silver anti-tarnishing compound)”.
With `Nc1ncnc2nc[nH]c12` [Adenine] the pKa [1] was 7.2, the “prevention of silver tarnishing, in words” value ([2]; Example 5, pH 6.9) was “did not prevent tarnishing” and the “prevention of silver tarnishing, in words” value ([2]; Example 5, pH 8.6) was “prevented silver tarnishing”. For the same compound, the “Effective Silver Anti-Tarnishing” value ([2]; Example 5: 1 wt.% compound, pH of composition 6.9) was “No (A tarnish score of 3 or less was considered effective as a silver anti-tarnishing compound)” and the “Effective Silver Anti-Tarnishing” value [2, 9] was “Yes (A tarnish score of 3 or less was considered effective as a silver anti-tarnishing compound)”.
For `Oc1ncnc2[nH]ncc12` [Allopurinol], the pKa [1] was 6.1 and the “Effective Silver Anti-Tarnishing” value [2, 9] was “Yes (A tarnish score of 3 or less was considered effective as a silver anti-tarnishing compound)”.
With `N=C(N)NCCC[C@H](N)C(=O)O` [Arginine, reference compound] the pKa [1] was 9.1, the pKa of compounds [1] was 9.1 and the “Effective Silver Anti-Tarnishing” value [2, 9] was “No (A tarnish score of 3 or less was considered effective as a silver anti-tarnishing compound)”. For the same compound, the “Effective Silver Anti-Tarnishing” value [2, 10] was “No (A tarnish score of 3 or less was considered effective as a silver anti-tarnishing compound)”.
For `c1ccc2[nH]cnc2c1` [Benzimidazole], the pKa of compounds [1] was 5.5 and the “Effective Silver Anti-Tarnishing” value [2, 10] was “Yes (A tarnish score of 3 or less was considered effective as a silver anti-tarnishing compound)”.
For `Nc1nc2nc[nH]c2c(=O)[nH]1` [Guanine], the pKa [1] was 6.7, the “prevention of silver tarnishing, in words” value ([2]; Example 5, pH 7.0) was “did not prevent tarnishing” and the “prevention of silver tarnishing, in words” value ([2]; Example 5, pH 8.6) was “prevented silver tarnishing”. The “Effective Silver Anti-Tarnishing” value ([2]; Example 5: 1 wt.% compound, pH of composition 7.0) was “No (A tarnish score of 3 or less was considered effective as a silver anti-tarnishing compound)” and the “Effective Silver Anti-Tarnishing” value [2, 9] was “Yes (A tarnish score of 3 or less was considered effective as a silver anti-tarnishing compound)”.
In the case of `N[C@@H](Cc1c[nH]cn1)C(=O)O` [Histidine], the “Effective Silver Anti-Tarnishing” value [2, 10] is reported as “Yes (A tarnish score of 3 or less was considered effective as a silver anti-tarnishing compound)”.
In the case of `O=c1[nH]cnc2nc[nH]c12` [Hypoxanthine], the pKa ([1]; pKa of compounds) is reported as 6 and the “Effective Silver Anti-Tarnishing” value [2, 9] is reported as “Yes (A tarnish score of 3 or less was considered effective as a silver anti-tarnishing compound)”.
In the case of `c1c[nH]cn1` [Imidazole], the pKa [1, 4] is reported as 6.9 and the “Effective Silver Anti-Tarnishing” value [2, 10] is reported as “Yes (A tarnish score of 3 or less was considered effective as a silver anti-tarnishing compound)”.
For `c1cn[nH]c1` [Pyrazole, reference compound], the pKa [1] was 11.5, the “prevention of heavy tarnishing of silver and silver-plated articles, in words” value (from here on “prevention of heavy tarnishing … in words”) [3] was “substantially ineffective” and the “Effective Silver Anti-Tarnishing” value [2, 9] was “No (A tarnish score of 3 or less was considered effective as a silver anti-tarnishing compound)”. The “Effective Silver Anti-Tarnishing” value [2, 10] was “No (A tarnish score of 3 or less was considered effective as a silver anti-tarnishing compound)”.
In the case of `c1cc[nH]c1` [Pyrrole, reference compound], the “prevention of heavy tarnishing … in words” value [3] is reported as “substantially ineffective”, the “Effective Silver Anti-Tarnishing” value [2, 9] is reported as “No (A tarnish score of 3 or less was considered effective as a silver anti-tarnishing compound)” and the “Effective Silver Anti-Tarnishing” value [2, 10] is reported as “No (A tarnish score of 3 or less was considered effective as a silver anti-tarnishing compound)”.
With `O=c1[nH]c(=O)c2[nH]c(=O)[nH]c2[nH]1` [Uric Acid] the pKa [1] was 4.6 and the “Effective Silver Anti-Tarnishing” value [2, 9] was “Yes (A tarnish score of 3 or less was considered effective as a silver anti-tarnishing compound)”.
With `O=c1[nH]c(=O)c2[nH]cnc2[nH]1` [Xanthine] the pKa [1] was 7 and the “Effective Silver Anti-Tarnishing” value [2, 9] was “Yes (A tarnish score of 3 or less was considered effective as a silver anti-tarnishing compound)”.
In the case of `c1ccc2[nH]ncc2c1` [indazole, reference compound], the “prevention of heavy tarnishing … in words” value [3] is reported as “substantially ineffective”.
In the case of `c1cncnc1` [pyrimidine, reference compound], the “prevention of heavy tarnishing … in words” value [3] is reported as “substantially ineffective”.
